Assays:
Cdc7/Dbf4 = Cdc7/Dbf4 (Homo sapiens, UniProt O00311); test: Cdc7 Biochemical Assay Method 3: Cdc7/Dbf4 Enzyme TR-FRET Assay measuring pS40MCM2; conditions: 1 μM ATP, read-out: Biochemical Method 3 (pIC50) (converted)
Outline: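 TR-FRET read-out (terbium anti-rabbit donor, streptavidin-Alexa Fluor488 acceptor, anti-Mcm2 pS40 antibody) of peptide phosphorylation after 120 min at 25° C; reaction held 1 μM ATP, 100 nM biotin-tagged peptide substrate and 2.5 nM enzyme complex.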

Cdc7/ASK [1] = target: T1, Cdc7/ASK (Homo sapiens, UniProt O00311); test: Cdc7 Biochemical Assay Method 1: 384 well ELISA, whole protein substrate MCM2, antibody against Phospho MCM2 (S53); set-up: purchased; conditions: 2 μM ATP, read-out: Biochemical Method 1 (pIC50) (converted)
T1 sequence (O00311 whole entry): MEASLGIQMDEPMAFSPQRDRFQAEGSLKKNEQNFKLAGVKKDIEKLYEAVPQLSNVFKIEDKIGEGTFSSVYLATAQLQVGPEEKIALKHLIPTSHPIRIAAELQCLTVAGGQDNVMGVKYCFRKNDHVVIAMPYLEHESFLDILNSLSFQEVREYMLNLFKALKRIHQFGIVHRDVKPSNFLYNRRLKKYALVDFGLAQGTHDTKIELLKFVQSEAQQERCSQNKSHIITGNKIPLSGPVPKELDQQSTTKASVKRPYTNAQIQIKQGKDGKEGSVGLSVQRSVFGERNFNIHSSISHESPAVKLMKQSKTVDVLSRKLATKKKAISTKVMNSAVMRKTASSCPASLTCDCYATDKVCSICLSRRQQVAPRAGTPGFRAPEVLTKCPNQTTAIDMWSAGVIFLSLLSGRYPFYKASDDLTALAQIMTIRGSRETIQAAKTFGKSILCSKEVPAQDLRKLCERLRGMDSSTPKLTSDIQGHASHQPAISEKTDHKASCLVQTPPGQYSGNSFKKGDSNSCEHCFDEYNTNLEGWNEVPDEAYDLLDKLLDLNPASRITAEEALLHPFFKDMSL
T1 sequence (Q9UBU7 whole entry partner): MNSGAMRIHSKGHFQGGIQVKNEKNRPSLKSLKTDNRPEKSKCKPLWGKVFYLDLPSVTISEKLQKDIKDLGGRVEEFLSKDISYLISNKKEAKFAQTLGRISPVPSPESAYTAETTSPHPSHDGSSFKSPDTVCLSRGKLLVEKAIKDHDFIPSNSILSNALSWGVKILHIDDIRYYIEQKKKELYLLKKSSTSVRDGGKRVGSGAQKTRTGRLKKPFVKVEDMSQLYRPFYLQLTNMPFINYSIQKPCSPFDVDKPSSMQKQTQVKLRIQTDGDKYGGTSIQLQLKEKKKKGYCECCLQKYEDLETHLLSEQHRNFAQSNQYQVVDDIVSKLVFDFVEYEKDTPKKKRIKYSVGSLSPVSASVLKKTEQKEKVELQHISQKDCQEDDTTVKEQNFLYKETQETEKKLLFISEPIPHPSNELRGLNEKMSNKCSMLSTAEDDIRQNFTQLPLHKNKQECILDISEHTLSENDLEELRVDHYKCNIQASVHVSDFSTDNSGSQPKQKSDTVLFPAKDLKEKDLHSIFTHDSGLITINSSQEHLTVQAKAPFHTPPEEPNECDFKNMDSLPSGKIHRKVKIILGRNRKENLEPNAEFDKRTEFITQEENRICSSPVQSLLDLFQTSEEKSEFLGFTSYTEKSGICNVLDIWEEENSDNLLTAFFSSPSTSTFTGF
Outline: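 MCM2 protein substrate was coated on nickel-chelate plates, then Cdc7/ASK was added with 2 μM ATP in 50 mM Tris-HCl pH 8.5, 10 mM MgCl2, 1 mM DTT, 4% DMSO, 90 min at room temperature. Phospho-MCM2 (S53) was detected by ELISA with an AP secondary and PNPP absorbance. IC50 was derived from % inhibition versus no-compound and no-enzyme controls.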

Cdc7/ASK [2] = target: T1, Cdc7/ASK; test: Cdc7 Biochemical Assay Method 2: 384 well mobility shift assay (EZ Reader II), MCM2 peptide substrate; set-up: purchased; conditions: 12.5 μM ATP, read-out: Biochemical Method 2 (pIC50) (converted)
Description: This protocol describes a method for assaying Cdc7/ASK for activity. The assay is a 384 well mobility shift assay (MSA) run on the EZ Reader II microfluidics plate reader (Caliper LifeSciences), utilising a peptide substrate based on the MCM2 sequence. The assay technology is based on the change in mobility between the peptide substrate and the phosphorylated product. A 10 nL volume of the reaction mixture is sipped onto the microfluidic chip where the substrate and product are separated by electrophoresis and detected via laser-induced fluorescence (488 nm LED). The reaction can be monitored in real-time for kinetic experiments or as an end-point for IC50 determinations. The % conversion of substrate is calculated from peak heights of product (P) and substrate (S) peptides (% conversion=P/(P+S)*100).
• 10× Assay Buffer: 200 mM HEPES pH 8, 100 mM MgCl2, 0.1% v/v Triton X-100 and 15 mM DTT. Prepare fresh buffer from 1 M HEPES pH 8, 1 M MgCl2, 1 M DTT and 10% Triton x-100 stocks for each experiment. • Cdc7/ASK is purchased from commercial suppliers and used in the assay at a final assay concentration of 0.847 ng/μL or 9.2 nM. • MCM2 peptide is purchased from commercial suppliers and used in the assay at a final assay concentration of 2.5 μM. • ATP used in the assay at a final assay concentration of 12.5 μM. Methods • 1. Prepare intermediate (daughter) compound plate by transferring 2 μL of compound from the mother plate to 18 μL of 33.3% DMSO in a clear polypropylene plate. • 2. Dry-spot 1 μL of compound from the intermediate compound plate to empty assay plate. • 3. Add 5 μL of 1.694 ng/μL CDC7/ASK working solution to ‘test’ and ‘control’ wells or […] of 2× Assay Buffer to ‘blank’ wells. • 4. Add 4 μL 2.5 μM peptide/12.5 μM ATP working solution to all wells. • 5. Incubate at 37° C. for 1 hour then remove from the incubator and leave for a further 1 hour at room temperature. • 6. Place plate into an EZReader II to read.
Percentage inhibition values were calculated from % of substrate conversion values, using the no compound (DMSO) and no enzyme control values as 0% and 100% inhibition, respectively. IC50 determination was performed with ExcelFit software (IDBS) using curve fit 205. Z′ factors were determined for each plate tested and were all above 0.5.

[3] = system: Cdc7 (pS53MCM2 levels in HCT116 cells); test: Cdc7 Cell Pharmacodynamics Assay Method 1: pS53MCM2 levels in HCT116 cells, 6 hours; assay type: cell-based; conditions: Homo sapiens, HCT-116, 6 h, read-out: Biomarker Method 1 (pEC50) (converted)
Description: This protocol describes a method to investigate the inhibition of Cdc7 activity of compounds by measuring pS53MCM2 levels in cells after treatment.
• HCT116 cells (wild type P53 positive) • McCoys 5A media (PAA Laboratories Ltd, E15-022) • 10% FCS (Sera Laboratories International Ltd, EU000F Batch:108005) • 100× L-Glutamine (Invitrogen, 25030-024) • D-PBS without CaCl2 and MgCl2 (Invitrogen, ref 14190-094) • Trypsin/EDTA (Invitrogen 25300-054) • 2% BSA in PBS • Cell Extraction Buffer (Invitrogen FNN0011) • Protease inhibitor cocktail (Sigma P-2714) • PMSF 0.3M stock in DMSO (Sigma P7626) • Antibody-rabbit pMCM2 Ser53 (Bethyl #A300-756A) • Antibody-goat MCM2 (Bethyl #A300-122A) • Antibody-goat Anti Rabbit IgG HRP (Perbio Science UK Ltd 31462) • 1×PBS • FACE Wash buffer (0.02% Triton X100 in 1×PBS) • SuperSignal ELISA Pico Chemiluminescent Substrate (Perbio Science UK Ltd 37070) Method • 72 hours prior to the start of the experiment plate 1×10^6 HCT 116 cells in a 150 cm^2 flask in complete McCoys 5A media (+10% FCS+1× L-glutamine). • Plate 20,000 HCT116 cells per well in standard TC treated 96 well plate in 100 μL complete McCoys 5A media. • Allow cells to settle overnight in incubator set at 37° C. and 5% CO2. • Remove intermediate plate from fridge and place at 37° C. overnight to allow to equilibrate. • Cell treatment: cell assay plate 100 μL; daughter to cell transfer volume 3.33 μL; daughter volume 45 μL; mother plate to daughter volume 5 μL. • Once all cells are treated remove the cells to the incubator and incubate for 6 hours. • Dilute the capture antibody (total MCM2#A300-122A) 1 in 250 in the required volume of PBS (5 mL per assay plate) and add 50 μL to each well of a Hybond plate excluding wells 12E to 12H. In these wells add 50 μL PBS. Seal the plate and incubate at room temperature for a minimum of 2 hours. • Defrost aliquot of Invitrogen Cell Extraction Buffer (FNN0011) on ice and supplement with appropriate volume of both Sigma protease inhibitor cocktail (P-2714) and PMSF (final conc 1 mM from a 1 M stock in DMSO). • After the 6 hour cell treatment time tap out the media from the assay plates and place them in the −70° C. freezer for at least 5 minutes. • Remove plates from freezer and add 20 μL of ice cold complete lysis buffer on ice. Incubate cells for 30 minutes at 4° C. • Add 80 μL per well 2% BSA. • Transfer 80 μL from the lysis plate to the same wells in the capture/ELISA plate. Cover with plate seal and incubate plates overnight at 4° C. • Wash plates with PBS, remove any residual remaining liquid and add 50 μL per well of pMCM2 Ser53 antibody (#A300-756A) diluted 1 in 100 in 2% BSA. Cover plate and incubate at room temperature for 2 hours with gentle shaking. • Wash plates with PBS, remove any residual remaining liquid and Incubate with 50 μL goat anti rabbit antibody (1 in 800 dilution in 2% BSA) for 1 hour at room temperature. • Wash plates with PBS, remove any residual remaining liquid and add 50 μL mixed SuperSignal Pico substrate. • Incubate each plate for 5 minutes at room temperature shielding the plates from direct light (with a cover plate). Read plates with the luminescent detection. Method 2A and 2B

[4] = system: Cdc7 (pS40MCM2 levels in HCT116 cells); test: Cdc7 Cell Pharmacodynamics Assay Method 2B: pS40MCM2 levels in HCT116 cells, 18 hours; assay type: cell-based; conditions: Homo sapiens, HCT-116, read-out: Biomarker Method 2B (pEC50) (converted)
Description: (§1) This protocol describes a method to investigate the inhibition of Cdc7 activity by measuring pS40MCM2 levels in cells, after treatment with compounds.
(§2) • HCT116 cells (ATCC, #CCL-247) • McCoys 5A with L-glutamine (Cellgro, #10-050-CV) • 10% FCS (Cellgro, #35-010-CV) • D-PBS without CaCl2 and MgCl2 (Cellgro, #21-031-CV) • Trypsin/EDTA (Cellgro, #25-052-CL) • BSA (Calbiochem, 126593) • Cell Extraction Buffer (Invitrogen FNN0011) • Protease inhibitor cocktail (Sigma P-2714) • PMSF 0.3M stock in DMSO (Sigma P7626) • Antibody-rabbit pMCM2 Ser40 (Abcam, AB133243) • Antibody-goat MCM2 (Bethyl #A300-122A) • Antibody-goat Anti Rabbit IgG HRP (Thermo, 31462) • SuperSignal ELISA Pico Chemiluminescent Substrate (Perbio Science UK Ltd 37069) • 10×PBS (Growcells, MRGF-6236) • Triton X100 (Sigma, P-T8787) • DMSO (Fisher, D128-1) • 2-Propanol (J. T. Baker, 9095-03) Method • Seed 1×10^6 HCT116 cells into each of two 175 cm^2 flask containing 30 mL Cell Growth Media and incubate at 37° C., 5% CO2 for 3 days. • Harvest the cells from one T175 cm^2 flask and count. • Dilute with Cell Growth Media to a cell density of 2×10^5. Dispense 100 μL to each well (20,000 HCT116 cells/well) of TC treated 96-well plate(s). • Allow cells to settle overnight in incubator set at 37° C. and 5% CO2. • Cell treatment: Transfer 0.25 μL/well from the compound plate to the wells of the cell plate(s). This is a 1:400 dilution of compound in the assay. • Once all cells are treated place the cells back to the incubator and incubate for either 6 hours (Method 2A) or 18 hours (Method 2B). • Dilute the capture antibody (total MCM2#A300-122A) 1 in 250 in the required volume of PBS (5 mL per assay plate, plus 5 mL for dead volume) and add 50 μL to each well of a Hybond plate except wells A12 & B12. Seal the plate and incubate at room temperature for a minimum of 2 hours. • Defrost aliquot of Invitrogen Cell Extraction Buffer (FNN0011) on ice and supplement with appropriate volume of both Sigma protease inhibitor cocktail (P-2714) and PMSF (final conc 1 mM from a 1 M stock in DMSO). • After the 6 hour or 18 hour cell treatment time, tap out the media from the assay plates and place them in the −70° C. freezer for at least 5 minutes. • Flick out the remaining liquid in the previously prepared capture Ab plate(s) and add 200 μL 2% BSA per well. Incubate for 1 hour at room temperature. • Remove plates from freezer and add 20 μL of ice cold complete lysis buffer. Incubate cells for 30 minutes at 4° C. • Add 30 μL per well 2% BSA • At the end of the 1 hour incubation, wash the Capture/ELISA plate(s) with Wash Buffer on the BioTek plate washer. • Transfer 40 μL per well of the lysis plate(s) to the same wells in the Capture/ELISA plate. Incubate cells overnight at 4° C. • At the end of the overnight incubation, wash the ELISA plate(s) with Wash Buffer on BioTek plate washer. • Prepare Detection Antibody Buffer and dispense 50 μL to all wells of ELISA plate(s) except wells G1 & H1. Cover plate and incubate at room temperature for 2 hours with gentle shaking. • At the end of the 2 hour incubation, wash the ELISA plate(s) with Wash Buffer on the BioTek plate washer. • Prepare the Conjugated Antibody Buffer and dispense 50 μL to all wells of ELISA plate(s). • Cover the plate and incubate at room temperature for 1 hour with gentle shaking. • At the end of the 1 hour incubation, wash the ELISA plate(s) with Wash Buffer on the BioTek plate washer. • Prepare Substrate Buffer and dispense 50 μL to all wells of ELISA plate(s). • Incubate for a minimum of 10 minutes and read plates on the EnVision 2100 Multilabel Reader (Mirror: Luminescence (404) & Luminescence 700 (212); Measurement Height: 6.5 mm; Measurement Time: 0.2 s). Method 3

[5] = system: Cdc7 (pS40MCM2 levels in HCT116 cells); test: Cdc7 Cell Pharmacodynamics Assay Method 2A: pS40MCM2 levels in HCT116 cells, 6 hours; assay type: cell-based; conditions: Homo sapiens, HCT-116, read-out: Biomarker Method 2A (pEC50) (converted)
Description: as §1, §2

Cdc7/Dbf4, sequence (O00311 whole entry): as the sequence (O00311 whole entry) above
Cdc7/Dbf4, sequence (Q9UBU7 whole entry partner): as the sequence (Q9UBU7 whole entry partner) above

IC50 (Cdc7/ASK [2]) [nM]	EC50 [3] [nM]	SMILES	also measured
1.38	42.7	CC(C)(C)[C@H]1CN(c2nc(-c3ccnc(F)c3)[nH]c(=O)c2Cl)CCN1 [Compound 322]	
7.08	263	C[C@H]1COCCN1c1nc(-c2ccncc2)[nH]c(=O)c1Cl [Compound 365]	
60.3		CCCC1COCCN1c1nc(-c2ccncc2)[nH]c(=O)c1Cl (stereo not drawn) [Compound 366]	
295		CC(C)CC1COCCN1c1nc(-c2ccncc2)[nH]c(=O)c1Cl (stereo not drawn) [Compound 367]	
0.603	15.5	CC1CNCCN1c1nc(-c2ccncc2)[nH]c(=O)c1Cl (stereo not drawn) [Compound 368]	
263		O=c1[nH]c(-c2ccncc2)nc(N2CCNCC2c2ccccc2)c1Cl (stereo not drawn) [Compound 372]	
11.5		CC(C)[C@H]1CN(c2nc(-c3ccncc3)[nH]c(=O)c2C#N)CCN1 [Compound 409, 4-[(3S)-3-isopropylpiperazin-1-yl]-6-oxo-2-(4-pyridyl)-1H-pyrimidine-5-carbonitrile]	
10.5		CC(C)(C)[C@H]1CN(c2nc(-c3ccncc3)[nH]c(=O)c2C#N)CCN1 [Compound 411, 4-[(3S)-3-tert-butylpiperazin-1-yl]-6-oxo-2-(4-pyridyl)-1H-pyrimidine-5-carbonitrile]	

Second part, the compound before the results:

SMILES	IC50 (Cdc7/ASK [2]) [nM]	EC50 [3] [nM]	also measured
CC(C)C[C@H]1CN2CCC[C@H]2CN1c1nc(-c2ccncc2)[nH]c(=O)c1Cl [Compound 184]	170		IC50 (Cdc7/Dbf4): 102 nM; IC50 (Cdc7/ASK [1]): 437 nM
CC(F)(F)[C@H]1CN(c2nc(-c3ccncc3)[nH]c(=O)c2Cl)CCN1 [Compound 307]	2.29		IC50 (Cdc7/ASK [1]): 3.63 nM
CC(F)(F)[C@H]1CN(c2nc(-c3ccnc(F)c3)[nH]c(=O)c2Cl)CCN1 [Compound 315]	1.51	63.1	
NC[C@@H]1CCN(c2nc(-c3ccnc(F)c3)[nH]c(=O)c2Cl)C1 [Compound 318]	14.1		
NC1CCN(c2nc(-c3ccnc(F)c3)[nH]c(=O)c2Cl)CC1 [Compound 321]	2.29	457	
O=c1[nH]c(-c2ccnc(F)c2)nc(N2C3CCCC2COC3)c1Cl [Compound 334]			IC50 (Cdc7/Dbf4): 0.724 nM; EC50 [4]: 61.7 nM; EC50 [5]: 135 nM

— patent US10919896B2, “Preparation and uses of pyrimidinone derivatives” (Cancer Research Technology Limited, priority 2016, dated 2021)
